The values below are quoted from earlier work in patent US8211469B2, “Use of block copolymers based on vinyllactams and vinyl acetate as solubilizers” (priority 2006, dated 2012).

For this series the following is noted: 20° C.

Consider `Fc1ccc([C@]2(Cn3cncn3)O[C@H]2c2ccccc2Cl)cc1` (racemic) [Epoxyconazole], for which the Solubility in water is 6.63*10^−4 g/100 ml.
